Data: patent US8518884B2, “Methods for treating atrial or ventricular arrhythmias by administering a G-protein alpha inhibitor” (Northwestern University, priority 2008, dated 2013)
Ends that are not written are not given here.

Tests used:
[1] = tested on: left atrium; assay: Functional studies in pacing-induced CHF and control canine subjects: left atrial ERPs under autonomic manipulation; assay type: in vivo
Description: Canine subjects were divided into three groups. In group 1, CHF was induced by rapid ventricular pacing for 4 weeks (i.e. when the animals began to develop clinical heart failure. In group 2, pacing was performed for only 3 weeks. Group three were control canine subjects not subjected to rapid ventricular pacing. At the end of follow up period, high-density epicardial mapping was performed in the PVs, the PLA and the LAA. ERPs were obtained at multiple sites under the following conditions: a) baseline (BSL), b) left cervical vagal stimulation at 20 Hz (VS), c) beta-stimulation with isoproterenol (ISO), d) beta-blockade with propranolol (PROP) and e) beta-blockade+vagal stimulation (P+VS). VS caused significant mean ERP shortening in all three groups. […] PROP increased the VS effect on ERP in normal controls, but produced an attenuation of this effect in the CHF group (SEE FIG. 37). In this CHF model, after 4 weeks of pacing, an increased vagal effect on atrial refractoriness, an increased cumulative sympathetic effect, and a change in the sympatho-vagal interactions of the left atrium were observed. After 3 weeks of pacing, there is pronounced autonomic remodeling, with evidence of P as well S nerve upregulation in the PVs and left atrium. Both P and S upregulation are more pronounced in the PLA (and to a lesser extent in the PVs) than in the rest of the left atrium. While vagal responsiveness in the left atrium is unaltered at 3 weeks of pacing, it increases after 4 weeks of pacing. […] The autonomic remodeling becomes more pronounced with increasing duration of pacing. […] The increase in β1 binding is consistent with the increase in sympathetic innervation. […] The P upregulation noted in the left atrium in CHF is a compensatory response to S upregulation that occurs in response to CHF. […] However, since normal atria are more densely innervated with vagal fibers (than the ventricle) and also contain a significant amount of IKAch, the compensatory response is likely to be more vigorous in the atrium. The compensatory increase in vagal innervations, and resulting increase in IKAch, may contribute to increased AF substrate.

[2] = molecular target: T1, M2R|Gαi/o interactions (Canis lupus familiaris, UniProt A0A8I3N4M6); assay: Gαx minigenes in the PLA: vagal-induced ERP shortening, AF inducibility, AF duration and dominant frequency 3 days after delivery; assay type: in vivo, dog
T1 construct: from tissue; host or cells: posterior left atrium of intact dogs (in vivo), 3 days after minigene injection and electroporation
T1 sequence (A0A8I3N4M6 1-466): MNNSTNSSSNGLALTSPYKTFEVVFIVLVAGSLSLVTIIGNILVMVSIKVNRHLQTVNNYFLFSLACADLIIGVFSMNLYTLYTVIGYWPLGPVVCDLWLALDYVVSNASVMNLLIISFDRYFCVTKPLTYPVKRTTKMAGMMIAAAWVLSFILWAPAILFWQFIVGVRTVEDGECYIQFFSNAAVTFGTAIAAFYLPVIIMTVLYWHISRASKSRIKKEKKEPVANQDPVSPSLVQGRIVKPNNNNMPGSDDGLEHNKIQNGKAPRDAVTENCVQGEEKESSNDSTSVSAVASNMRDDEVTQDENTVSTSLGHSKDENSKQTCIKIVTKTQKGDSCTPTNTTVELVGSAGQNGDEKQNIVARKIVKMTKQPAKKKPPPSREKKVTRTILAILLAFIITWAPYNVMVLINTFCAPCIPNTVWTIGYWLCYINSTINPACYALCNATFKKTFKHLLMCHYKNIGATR
Description: (§1) In a small number of pilot experiments (N=6), 1 mg of Gαi2ctp or GαRp minigene was injected subepicardially in the PLA (also see Results). In the remaining experiments, 15-20 mg of ct-Gαi2ctp (N=5), or 7-10 mg of Gαi2ctp+7-10 mg of Gαo1ctp (N=3), or GαRp (N=5) minigenes was injected in the PLA. Minigenes were made up to a volume of 4 ml and injected at multiple sites (6-8 equally spaced sites, 0.5-1 cm apart; a volume of approximately 0.5 ml was injected at each site) in the PLA so as to cover the entire area between the PVs. […] Immediately after gene injection, electroporation was performed at each site of injection as follows: two gold-plated, needle-style electrodes (10 mm length each) were placed at each gene injection site on the PLA, with an inter-electrode distance of 5 mm; electroporation with performed as previously described in the lung by Dean et al^14, with 8 pulses of is at […] (ECM 830, Harvard Bioscience, Holliston, Mass.). After minigene delivery, the chest was closed and the animal allowed to recover. Vagal stimulation and electrophysiological testing were not performed at baseline, in order to minimize damage to the vagus nerve.
Baseline study: Three days after the initial study, the chest was re-opened. […] The PV plaque was placed circumferentially around the vein while the other two plaques were laid flat on the PLA and LAA epicardium. Effective refractory periods (ERPs) were obtained from 5, 6, and 4 sites on the PV, PLA, and LAA plaque, respectively, at baseline.
Vagal stimulation: For vagal stimulation, the left cervical vagus nerve was isolated, a bipolar stainless steel electrode was attached to the nerve, and stimulation was performed at 20 Hz (15-20V, 2-8 ms) (Grass S44G, Astromed Inc, R1). A vagal response was defined as: 1) sinus node slowing by at least 25% or 2) PR prolongation by more than 25% or 2:1 AV block^13. ERP testing was performed in the presence and absence of VS.
(§2) Atrial Fibrillation Inducibility: AF was defined as an atrial arrhythmia that was irregular in at least one of the recording electrodes. Regular atrial arrhythmias—e.g., atrial flutter and atrial tachycardia—were excluded from AF analysis. AF inducibility was measured as the inducibility index and duration of AF episodes after a single extrastimulus^8,15. As previously described, the inducibility index was defined as the number of AF episodes lasting more than 5 seconds induced by a single atrial extrastimulus divided by the total number of single atrial extrastimuli delivered to measure each ERP (at least 3 for each site)^8. The inducibility index was compared for each maneuver. Mean AF duration for each intervention was also assessed. All data was acquired by a 128-channel mapping system (Prucka Cardiolab, GE, WI) at a sampling rate of 977 Hz. All AF episodes induced during extrastimulus testing were stored for offline analysis. After all ERPs had been obtained, minigene injection was performed as described below.
Offline Electrogram Analysis. Electrograms recorded during the maximum duration AF episodes obtained during extrastimulus testing were analyzed with dominant frequency (DF) analysis. DF is an estimation of activation rate calculated as the frequency with the most power in the power spectrum. The power spectrum is obtained from the Fast Fourier Transform of an electrogram after rectification and low pass filtering (20 Hz). These analyses were performed offline using Matlab (Mathworks, Natick, Mass.).
(§3) Effective Refractory Periods. For each ERP, the pacing protocol was composed of a drive train (S1) of eight beats with a cycle length of 400 ms followed by an extrastimulus (S2). The S2 was decremented by 10 ms until loss of capture. […] Pacing was performed at an output current twice the threshold required for consistent capture of the tissue. The mean ERP was used as the representative ERP for each of the three sites as well as the entire left atrium.

[3] = molecular target: T1, M2R|Gαi/o interactions; assay: Gαx minigenes in the PLA: CCh-induced ERP shortening and AF 3 days after delivery; assay type: in vivo, dog
Description: as §1
CCh application: ERP shortening was assessed by direct application of CCh, a non-selective MR agonist, to the PLA. […] After each dose, ERP testing was performed in the PLA.
as §2, §3

[4] = tested on: Gαi; assay: cp-Gα peptide delivery to the PLA with electroporation/sonoporation: ERPs and AF inducibility with vagal stimulation; assay type: in vivo, canine
Description: High-density epicardial mapping was performed in the PVs (2×2 electrodes), the PLA (7×3 electrodes) and the left atrial appendage (LAA) (7×3 electrodes) of canine subjects. Effective refractory periods (ERPs) were obtained at baseline and in response left cervical vagal stimulation (VS) (20 Hz). Cp-Gαi2 peptide (200-330 nM) was then applied topically to the epicardial aspect of the PLA in a canine subgroup. Cp-Gαi3 peptide (200-330 nM) was then applied topically to the epicardial aspect of the PLA of a second subgroup. Electroporation was performed after the application of peptide to enhance intracellular delivery of the peptide. ERPs were then re-measured in the presence and absence of VS.
In canine subjects, high-density epicardial mapping was performed in the PVs (2×2 electrodes), the PLA (7×3 electrodes) and the left atrial appendage (LAA) (7×3 electrodes). Effective refractory periods (ERPs) were obtained at baseline and in response left cervical vagal stimulation (VS) (20 Hz). FLAG-tcp-Gα peptides (200 nM-3 μM of cp-Gαi1/2 (N=8 canine subjects), cp-Gαi3 (N=4 canine subjects), or random-sequence cp-GαoR peptide (N=3 canine subjects) were injected into the PLA epicardium of the canine subjects followed by either sonoporation or electroporation. In a subgroup of the canine subjects, sonoporation or electroporation alone was performed without introduction of cp-Gαi peptide. ERPs were then re-measured in the presence and absence of VS. In a separate set of control animals, ERPs were measured before and after the administration of systemic autonomic blockade with propranolol (0.2 mg/kg)+atropine (0.04 mg/kg).

[5] = 200 nM-3 μM injected into PLA + sono/electroporation

CC(C)NCC(O)COc1cccc2ccccc12 (stereo not drawn) [PROP, propranolol]
effect on ERPs ([1]; CHF canine subjects): ERP lengthening | effect on the VS effect on ERP ([1]; CHF group): attenuation | effect on ERPs ([1]; control canine subjects): significant shortening of ERPs | effect on the VS effect on ERP ([1]; normal controls): increased

IKNNLKDCGLF [Gαi2ctp]
vagal-induced ERP shortening in the PLA ([2]; 3 days after minigene delivery, mean±SE): 19.5 ± 5.0 ms | vagal-induced ERP shortening in the PLA ([2]; compared to GαRcpt, FIG. 29A): attenuated | vagal-induced ERP shortening in the PV and LAA ([2]; compared to GαRp dogs): no significant difference | AF inducibility in response to VS ([2]; inducibility index, vs. GαRp dogs): significantly less | VS-induced increase in AF dominant frequency (DF) ([2]; vs. GαRp dogs): significantly less | mean AF duration in response to VS ([2]; vs. GαRp dogs): significantly less | CCh-induced ERP shortening in the PLA ([3]; 3 μM, 10 μM CCh, compared to GαRp dogs): significantly less | CCh-induced ERP shortening in the PLA ([3]; 30 μM CCh, compared to GαRp dogs): no significant difference | CCh-induced ERP shortening in the PLA ([3]; CCh 3, 10 and 30 μM, compared to baseline ERP): only at 30 μM CCh | AF duration in response to CCh ([3]; vs. GαRp dogs): significantly less | AF inducibility in response to CCh ([3]; vs. GαRp dogs): significantly less

cp-Gαi3: cell-penetrating poly-arginine tagged Gαi3 C-terminal peptide (IKNNLKECGLY; also: cell-penetrating poly-arginine tag, length and site not given here)
VS-induced ERP shortening in the LAA [4, 5]: reduced | VS-induced ERP shortening in the PLA [4, 5]: eliminated | VS induced ERP shortening ([4]; 200-330 nM topical to PLA + electroporation, PLA, PV and LAA): significantly attenuated
